Measurements from ChEMBL document CHEMBL1136576, “Synthesis of N,N',N"-trisubstituted thiourea derivatives and their antagonist effect on the vanilloid receptor” (Bioorg Med Chem Lett, 2003).

How the values were obtained:
[1] = target: T1, Vanilloid receptor (Rattus norvegicus, UniProt Q9ERZ8+Q9WUD2+O35433); assay: Antagonistic activity against vanilloid receptor as concentration to reduce the response to […] by 50% from neonatal rat culture spinal sensory neurons using [Ca2+] -influx assay; type: functional
[2] = target: T1, Vanilloid receptor; assay: Agonistic activity towards vanilloid receptor, [Ca2+] influx in neonatal rat spinal sensory neuronal culture; type: functional

| IC50 [1] [nM] | EC50 [2] [nM] | Compound |
| --- | --- | --- |
| 0.5 |  | COc1cc(CCCN(CCc2ccc([N+](=O)[O-])cc2)/C(S)=N/CCc2ccccc2)ccc1O |
| 0.95 |  | COc1cc(CCCN(CCc2ccc(C)cc2)/C(S)=N/CCc2ccccc2)ccc1O |
| 0.46 |  | COc1cc(CCCN(/C(S)=N/CCc2ccccc2)C(c2ccccc2)c2ccccc2)ccc1O |
| 0.95 |  | COc1cc(CCCN(Cc2ccccc2)/C(S)=N/CCc2ccccc2)ccc1O |
|  | > 30000 | COc1cc(CCCN(C)/C(S)=N/CCc2ccccc2)ccc1O |
| 0.55 |  | COc1cc(CCCN(CCc2ccc(Cl)cc2)/C(S)=N/CCc2ccccc2)ccc1O |
| 3 |  | COc1cc(CCCN(/C(S)=N/CCc2ccccc2)C2CCCCC2)ccc1O |
| 9.3 |  | CC(C)N(CCCc1ccc(O)c(O)c1)/C(S)=N/CCc1ccccc1 |
| > 30 |  | CCN(CCCc1ccc(O)c(OC)c1)/C(S)=N/CCc1ccccc1 |
| 12 |  | CCCN(CCCc1ccc(O)c(OC)c1)/C(S)=N/CCc1ccccc1 |
| > 30 |  | CC(C)N(CCCc1ccc(O)cc1)/C(S)=N/CCc1ccccc1 |
|  | > 30000 | COc1cc(CCC/N=C(\S)NCCc2ccccc2)ccc1O |
| 5.1 |  | COc1cc(CCCN(CCc2ccccc2)/C(S)=N/CCc2ccc(F)cc2)ccc1O |
| 10.5 |  | COc1ccc(CCCN(/C(S)=N/CCc2ccccc2)C(C)C)cc1OC |
| 1.2 |  | COc1cc(CCCN(CCc2ccc(F)cc2)/C(S)=N/CCc2ccccc2)ccc1O |
| 6.1 |  | COc1cc(CCCCN(CCc2ccccc2)/C(S)=N/CCc2ccccc2)ccc1O |
| 0.72 |  | COc1ccc(CCN(CCCc2ccc(O)c(OC)c2)/C(S)=N/CCc2ccccc2)cc1 |
| 10 |  | CCCCN(CCCc1ccc(O)c(OC)c1)/C(S)=N/CCc1ccccc1 |
| > 30 |  | CCCCCCCCN(CCCc1ccc(O)c(OC)c1)/C(S)=N/CCc1ccccc1 |
| 3.2 |  | COc1cc(CCCN(CCCc2ccccc2)/C(S)=N/CCc2ccccc2)ccc1O |
| 0.32 |  | COc1cc(CCCN(CCc2ccccc2)/C(S)=N/CCc2ccccc2)ccc1O |
| 2.4 |  | COc1cc(CCCN(CCc2ccccc2)/C(S)=N/CCc2ccc(Cl)cc2)ccc1O |
| 2.5 |  | COc1cc(CCCN(/C(S)=N/CCc2ccccc2)C(C)C)ccc1O |
|  | 3000 | COc1cc(CCC2CCCN2/C(S)=N/CCc2ccccc2)ccc1O (stereo not given) |
| 650000 |  | Oc1cc2c(cc1O)CN(C(=S)NCCc1ccc(Cl)cc1)CCC2 [CAPSAZEPINE] |
